The text below walks through data of patent publication US7772190B2, “Didepsipeptide-based endoparasiticides, new didepsipeptides and process for preparing the same” (Bayer Animal Health GmbH, priority 1995, dated 2010).

In experiment [1] the test system is Trichostrongylus colubriformis. The experiment in a line: In vivo nematode test Trichostrongylus colubriformis/sheep. The following applies: experimentally infected sheep; orally and/or intravenously as pure active compound; complete cessation of oviposition (worm eggs in faeces) after treatment. The protocol: Trichostrongylus colubriformis/Sheep
Sheep experimentally infected with Trichostrongylus colubriformis were treated after expiry of the prepatency time of the parasite. The active compounds were administered orally and/or intravenously as pure active compound.
(§1) The degree of effectiveness is determined by quantitatively counting the worm eggs excreted with the faeces before and after treatment.
(§2) Complete cessation of oviposition after treatment means that the worms have been expelled or are so damaged that they no longer produce eggs (effective dose).
Active compounds tested and effective doses can be seen from the following table.

For experiment [2], the system named is Haemonchus contortus. The experiment is described as follows: In vivo nematode test Haemonchus contortus/sheep. The following applies: experimentally infected sheep; orally and/or intravenously as pure active compound; complete cessation of oviposition (worm eggs in faeces) after treatment. As for the experimental part:
Haemonchus contortus/Sheep
Sheep experimentally infected with Haemonchus contortus were treated after expiry of the prepatency time of the parasite. The active compounds were administered orally and/or intravenously as pure active compound.
as §1, §2
Active compounds tested and effective doses can be seen from the following tables.

For `COC(=O)C(C)OC(=O)C(C)N(C)C(=O)N(C)C(=O)N(C)C` [Example 2, Methyl N-methyl-N-trimethylallophanoyl-L-alanyl-D-lactate], the Effective dose in experiment [1] and in experiment [2] was 5 mg/kg each time.

`COC(=O)C1CCCCN1C(=O)C(C)OC(=O)C(C)N(C)C(=O)N(C)C(=O)N(C)C` [Example 8, N-methyl-N-trimethylallophanoyl-L-alanyl-D-lactyl-L-homoproline Methyl Ester] showed an Effective dose in experiment [2] of 5 mg/kg.
